Measurements: patent US20100212049A1, “Compositions and Methods of Use of Response Regulators” (Pioneer Hi-Bred International, Inc., priority 2005, published 2010)

What was measured:
[1] = system: Zm Response regulator 5 (ZmRR5); assay: Lynx expression experiment, leaf discs floated on BA vs water: ZmRR5; type: cell-based, maize B73; conditions: 6 h
Procedure: (§1) A Lynx experiment was performed to identify genes in the cytokinin signaling and metabolism pathway, as well as the carbohydrate pathway, whose expression is modulated in response to elevated cytokinin levels. One goal of this experiment was to identify response regulators that could be involved in the cytokinin-signaling pathway and could potentially act as Ckx1 transcriptional regulators.
(§2) Two experiments were performed: one was an initial experiment to determine the time course for BA induction of Ckx1 transcripts in leaf discs, while the second experiment used the time-course information to optimize tissue harvest for the actual Lynx study. For the time-course experiment, leaf discs (5 mm in diameter) were collected from fully expanded leaves of 8-week old maize plants (inbred B73) and were incubated in petri dishes containing water or water plus 10 μM BA for different time periods at 25° C. For the Lynx experiment ˜300 leaf-discs were punched from ear leaves collected from 5 different maize B73 plants at flowering. Half of the discs were floated in a large petri dish on a solution containing 10 μM BA; the other half were floated on distilled water. Discs were incubated for 6 h at 25° C. in the light, blotted-dried, frozen in liquid nitrogen, and then submitted for Lynx analysis.
(§3) Nevertheless, differences in levels of expression of multiple genes were detected and these are presented as genes relevant to cytokinin response, isoprenoid (or terpenoid) biosynthesis, and cell division (Table 2).
(§4) A ˜30-fold increase in Ckx1 transcripts was measured after 6 h of BA application (Table 2). […] We also identified two new response regulators whose expression is induced by BA, ZmRRS and ZmRR6 (Table 2).

[2] = system: Zm response regulator 6 (ZmRR6); assay: Lynx expression experiment, leaf discs floated on BA vs water: ZmRR6; type: cell-based, maize B73; conditions: 6 h
Procedure: as §1, §2, §3, §4

Ckx1 transcripts [3] = assay: Lynx expression experiment, leaf discs floated on BA vs water: Ckx1; type: cell-based, maize B73; conditions: 10 μM BA, 6 h
Procedure: as §1
as §2, with “Half of the discs were floated in a large petri dish on a solution containing 10 μM BA; the other half were floated on distilled water. Discs were incubated for 6 h at 25° C. in the light, blotted-dried, frozen in liquid nitrogen, and then submitted for Lynx analysis.” left out
as §3
A ˜30-fold increase in Ckx1 transcripts was measured after 6 h of BA application (Table 2). […]

Ckx1 transcripts [4] = assay: Time-course of Ckx1 transcript induction by BA in maize leaf discs (Northern blot); type: cell-based, maize (inbred B73); conditions: 10 μM BA, after 6 hours, 25° C.
Procedure: as §2
Time-course experiment: This perfunctory experiment was designed to learn the kinetics of Ckx1 transcript accumulation in response to BA. Ckx1 transcript levels were induced […] after 6 hours (FIG. 1).

Ckx1 = conditions: maize leaf discs incubated with BA, compared to untreated controls; cited from earlier work

For c1ccc(CNc2ncnc3nc[nH]c23)cc1 [BA, benzyladenine], the Up/down regulation ([1]; 10 μM BA vs water) was “up”, the “Ratio BA/Ctrl” value ([1]; 10 μM BA vs water, ppm ratio) was 8.50 and the “Cldba (treated sample) expression” value ([1]; 10 μM BA, Lynx) was 395 ppm. For the same compound, the Up/down regulation ([2]; 10 μM BA vs water) was “up”, the “Ratio BA/Ctrl” value ([2]; 10 μM BA vs water, ppm ratio) was 8.75 and the “Cldba (treated sample) expression” value ([2]; 10 μM BA, Lynx) was 70 ppm. For the same compound, the “increase in Ckx1 transcripts” value (Ckx1 transcripts [3]) was about 30 fold, the “Ckx1 transcript levels induced” value (Ckx1 transcripts [4]) was about 15 fold and the Ckx1 induced (Ckx1) was about 60 fold.
